From article PMC3909471 (European journal of medicinal chemistry, 2013)

Key:
[1] = tested on: L5 and L6 spinal nerve ligation neuropathic pain model in rats; assay: Spinal nerve ligation neuropathic pain model, von Frey paw withdrawal threshold; type: in vivo, rat; settings: intraperitoneally 5 – 20 mg/kg
human CB2 receptors [2] = target: T1, human CB2 receptors (Homo sapiens, UniProt P34972); assay: hCB2 receptor internalization; type: cell-based; settings: at 10 μM as printed in text
human CB2 receptors [3] = target: T1, human CB2 receptors; assay: Effect on CP55,940-induced CB2 internalization in hCB2 cells; type: cell-based; settings: 10 nM CP55,940 cotreated with 3 uM compound
[4] = target: rat CB1 cannabinoid receptor (Rattus norvegicus, UniProt P20272); assay: [3H]CP55,940 radioligand competition binding, rat CB1; settings: removal of the methyl moiety from the N-methylpiperazine analogue
[5] = target: human CB2 cannabinoid receptor (Homo sapiens, UniProt P34972); assay: [3H]CP55,940 radioligand competition binding, human CB2
Sequence of human CB2 cannabinoid receptor (P34972 whole entry): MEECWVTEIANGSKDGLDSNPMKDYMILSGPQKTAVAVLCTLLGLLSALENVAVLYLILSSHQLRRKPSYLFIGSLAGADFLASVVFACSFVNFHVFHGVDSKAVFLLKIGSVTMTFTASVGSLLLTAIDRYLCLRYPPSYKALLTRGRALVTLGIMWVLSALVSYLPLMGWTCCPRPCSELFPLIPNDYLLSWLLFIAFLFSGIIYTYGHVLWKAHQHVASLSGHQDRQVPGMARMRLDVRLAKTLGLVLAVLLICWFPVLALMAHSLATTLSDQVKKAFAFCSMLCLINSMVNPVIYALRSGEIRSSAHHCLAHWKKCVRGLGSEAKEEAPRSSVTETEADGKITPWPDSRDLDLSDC

T1 sequence (P34972 whole entry): as above
Sequence of rat CB1 cannabinoid receptor (P20272 whole entry): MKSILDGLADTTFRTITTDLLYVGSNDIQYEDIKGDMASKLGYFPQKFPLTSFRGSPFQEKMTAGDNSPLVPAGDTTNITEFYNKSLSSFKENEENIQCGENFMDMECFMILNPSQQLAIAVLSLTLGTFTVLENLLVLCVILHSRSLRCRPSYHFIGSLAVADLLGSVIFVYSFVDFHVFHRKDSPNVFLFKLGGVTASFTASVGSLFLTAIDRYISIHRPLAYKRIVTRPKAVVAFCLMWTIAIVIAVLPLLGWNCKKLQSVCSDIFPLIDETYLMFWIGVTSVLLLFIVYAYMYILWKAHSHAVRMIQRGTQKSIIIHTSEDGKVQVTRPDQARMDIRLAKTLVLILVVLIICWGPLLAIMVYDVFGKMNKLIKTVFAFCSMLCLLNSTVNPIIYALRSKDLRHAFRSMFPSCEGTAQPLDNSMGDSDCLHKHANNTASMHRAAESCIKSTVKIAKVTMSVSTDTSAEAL

CS(=O)(=O)NCCCn1c2ccccc2c2cc(C(=O)N3CCCCC3)ccc21 [Compound 64, N-(3-(3-(Piperidine-1-carbonyl)-9H-carbazol-9-yl)propyl)methanesulfonamide]
Tactile allodynia (paw withdrawal threshold, von Frey filaments) [1]: significantly attenuated tactile allodynia in a dose-dependent manner

CCCCCn1c2ccc(C(=O)N3CCCCC3)cc2c2ccc(OC)cc21 [Compound 81, (7-Methoxy-9-pentyl-9H-carbazol-3-yl)(piperidin-1-yl)methanone]
CB2 internalization (human CB2 receptors [2]): failed to internalize CB2
Reduction of hCB2 internalization induced by CP55,940 (human CB2 receptors [3]): reduced compound CP55,940-induced internalization

CCCCCn1c2ccccc2c2cc(C(=O)N3CCNCC3)ccc21 [Compound 15, (9-Pentyl-9H-carbazol-3-yl)(piperazin-1-yl)methanone]
Decrease of CB1 affinity [4]: 4 fold

CCCCCn1c2ccccc2c2cc(C(=O)N3CCN(C)CC3)ccc21 [Compound 9, (4-Methylpiperazin-1-yl)(9-pentyl-9H-carbazol-3-yl)methanone]
Improvement of CB2 selectivity ([5]; compared to the piperidine analogue 4): 3 fold

O=C(c1ccc2c(c1)c1ccccc1n2Cc1ccncc1)N1CCCCC1 [Compound 74, Piperidin-1-yl(9-(pyridin-4-ylmethyl)-9H-carbazol-3-yl)methanone]
Improvement in CB2 selectivity ([5]; 4-methylpyridine replacing the 4-methyltetrahydropyran fragment (vs 69)): 4 fold

CCCCCn1c2ccccc2c2cc(C(=O)NCC(C)(C)C)ncc21 [Compound 35, N-(2,2-dimethylpropyl)-9-pentyl-9H-pyrido[3,4-b]indole-3-carboxamide]
Reduction of hCB2 internalization induced by CP55,940 (human CB2 receptors [3]): more than 50%

CCCCCn1c2ccccc2c2cc(C(=O)c3ccccc3)ccc21 [Compound 18, (9-Pentyl-9H-carbazol-3-yl)(phenyl)methanone]
Reduction of hCB2 internalization induced by CP55,940 (human CB2 receptors [3]): more than 50%
